Five compounds from ChEMBL document CHEMBL1150977, “A quantitative analysis of kinase inhibitor selectivity” (Nat Biotechnol, 2008) can be followed below.

Assay [1] addresses Protein-tyrosine kinase 2-beta (Homo sapiens, UniProt Q14289).
The target in assay [2] is Proto-oncogene tyrosine-protein kinase receptor Ret (Homo sapiens, UniProt P07949, M918T).
Assay [3] has as its target Death-associated protein kinase 1 (Homo sapiens, UniProt P53355).
The target of assay [4] is T1, Myosin light chain kinase family member 4 (Homo sapiens, UniProt Q86YV6).
T1 sequence (Q86YV6 whole entry): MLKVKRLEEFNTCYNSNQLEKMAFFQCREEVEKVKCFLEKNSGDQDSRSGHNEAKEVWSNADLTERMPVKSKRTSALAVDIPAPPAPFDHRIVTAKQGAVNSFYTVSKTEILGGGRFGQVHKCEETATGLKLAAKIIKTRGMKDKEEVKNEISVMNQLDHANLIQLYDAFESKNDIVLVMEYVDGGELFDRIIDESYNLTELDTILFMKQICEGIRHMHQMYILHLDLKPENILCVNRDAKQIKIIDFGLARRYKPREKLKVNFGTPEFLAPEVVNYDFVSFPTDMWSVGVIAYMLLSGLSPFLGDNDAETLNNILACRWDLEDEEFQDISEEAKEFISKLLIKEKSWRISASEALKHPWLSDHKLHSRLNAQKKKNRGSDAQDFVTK

The target of assay [5] is T2, Tyrosine-protein kinase TXK (Homo sapiens, UniProt P42681).
T2 sequence (P42681 whole entry): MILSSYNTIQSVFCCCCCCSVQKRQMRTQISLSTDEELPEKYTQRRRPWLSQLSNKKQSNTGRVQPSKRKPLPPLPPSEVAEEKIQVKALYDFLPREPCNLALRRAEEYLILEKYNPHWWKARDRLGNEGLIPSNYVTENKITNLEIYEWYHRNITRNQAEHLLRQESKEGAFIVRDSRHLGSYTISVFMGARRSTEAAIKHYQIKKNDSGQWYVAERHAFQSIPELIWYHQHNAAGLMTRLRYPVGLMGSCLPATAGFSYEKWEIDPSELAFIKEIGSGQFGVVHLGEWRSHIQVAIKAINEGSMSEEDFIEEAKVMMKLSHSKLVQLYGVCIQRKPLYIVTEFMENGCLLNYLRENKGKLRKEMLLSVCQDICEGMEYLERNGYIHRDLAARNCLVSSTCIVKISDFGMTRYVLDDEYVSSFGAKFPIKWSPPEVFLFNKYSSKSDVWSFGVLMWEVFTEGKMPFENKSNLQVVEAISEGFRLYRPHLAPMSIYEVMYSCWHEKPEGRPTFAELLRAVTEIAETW

Assay [6] has as its target Receptor-type tyrosine-protein kinase FLT3 (Homo sapiens, UniProt P36888, ITD).
Assay [7] deals with T3, Ephrin type-B receptor 2 (Homo sapiens, UniProt P29323).
T3 sequence (P29323 whole entry): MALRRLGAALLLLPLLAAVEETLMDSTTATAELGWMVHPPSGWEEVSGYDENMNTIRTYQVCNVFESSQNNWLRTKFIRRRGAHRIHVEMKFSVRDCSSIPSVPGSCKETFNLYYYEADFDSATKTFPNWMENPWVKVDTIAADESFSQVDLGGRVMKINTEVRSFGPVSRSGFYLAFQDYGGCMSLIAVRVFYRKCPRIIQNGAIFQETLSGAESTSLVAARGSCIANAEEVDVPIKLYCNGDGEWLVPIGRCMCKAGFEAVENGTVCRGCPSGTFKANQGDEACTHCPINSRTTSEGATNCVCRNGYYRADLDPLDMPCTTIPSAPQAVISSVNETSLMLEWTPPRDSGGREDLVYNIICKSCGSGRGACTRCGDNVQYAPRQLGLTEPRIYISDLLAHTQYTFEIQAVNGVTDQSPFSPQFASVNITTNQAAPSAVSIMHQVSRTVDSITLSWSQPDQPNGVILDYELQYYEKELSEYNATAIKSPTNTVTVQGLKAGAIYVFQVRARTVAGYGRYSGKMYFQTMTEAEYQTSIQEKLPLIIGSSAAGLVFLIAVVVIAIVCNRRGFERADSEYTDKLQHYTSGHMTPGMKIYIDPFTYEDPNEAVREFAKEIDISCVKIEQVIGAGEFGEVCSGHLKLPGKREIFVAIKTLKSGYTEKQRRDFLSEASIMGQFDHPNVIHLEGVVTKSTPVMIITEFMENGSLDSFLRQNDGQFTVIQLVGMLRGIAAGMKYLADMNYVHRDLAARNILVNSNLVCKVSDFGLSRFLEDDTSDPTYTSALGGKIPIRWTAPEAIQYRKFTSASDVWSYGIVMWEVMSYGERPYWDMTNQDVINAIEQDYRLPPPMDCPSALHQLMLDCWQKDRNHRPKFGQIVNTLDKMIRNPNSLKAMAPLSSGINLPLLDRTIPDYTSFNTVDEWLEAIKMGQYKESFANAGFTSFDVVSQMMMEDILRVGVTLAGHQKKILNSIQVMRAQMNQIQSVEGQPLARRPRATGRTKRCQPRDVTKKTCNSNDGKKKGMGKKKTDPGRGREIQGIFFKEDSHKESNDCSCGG

For assay [8], the target named is T4, Inhibitor of nuclear factor kappa-B kinase subunit epsilon (Homo sapiens, UniProt Q14164).
T4 sequence (Q14164 whole entry): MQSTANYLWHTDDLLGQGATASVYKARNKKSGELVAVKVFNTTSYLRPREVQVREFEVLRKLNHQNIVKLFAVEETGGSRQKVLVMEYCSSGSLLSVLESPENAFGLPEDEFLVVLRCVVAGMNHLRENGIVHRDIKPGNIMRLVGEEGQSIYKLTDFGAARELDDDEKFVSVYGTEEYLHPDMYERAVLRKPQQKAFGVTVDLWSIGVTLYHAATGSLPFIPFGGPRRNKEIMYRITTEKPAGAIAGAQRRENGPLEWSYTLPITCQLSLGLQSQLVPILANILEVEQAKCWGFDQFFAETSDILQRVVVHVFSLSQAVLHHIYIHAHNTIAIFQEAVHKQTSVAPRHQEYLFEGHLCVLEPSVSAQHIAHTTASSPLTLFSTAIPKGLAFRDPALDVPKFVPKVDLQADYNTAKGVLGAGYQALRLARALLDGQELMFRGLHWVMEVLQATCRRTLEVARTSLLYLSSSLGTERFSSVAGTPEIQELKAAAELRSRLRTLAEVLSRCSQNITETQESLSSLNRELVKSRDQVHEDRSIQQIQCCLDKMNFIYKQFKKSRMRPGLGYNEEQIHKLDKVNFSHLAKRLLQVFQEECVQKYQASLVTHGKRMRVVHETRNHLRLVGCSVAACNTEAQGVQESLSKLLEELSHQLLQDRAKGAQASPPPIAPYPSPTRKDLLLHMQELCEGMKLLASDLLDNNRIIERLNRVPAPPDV

Sequence of Receptor-type tyrosine-protein kinase FLT3 (P36888 whole entry, looked up, change not shown): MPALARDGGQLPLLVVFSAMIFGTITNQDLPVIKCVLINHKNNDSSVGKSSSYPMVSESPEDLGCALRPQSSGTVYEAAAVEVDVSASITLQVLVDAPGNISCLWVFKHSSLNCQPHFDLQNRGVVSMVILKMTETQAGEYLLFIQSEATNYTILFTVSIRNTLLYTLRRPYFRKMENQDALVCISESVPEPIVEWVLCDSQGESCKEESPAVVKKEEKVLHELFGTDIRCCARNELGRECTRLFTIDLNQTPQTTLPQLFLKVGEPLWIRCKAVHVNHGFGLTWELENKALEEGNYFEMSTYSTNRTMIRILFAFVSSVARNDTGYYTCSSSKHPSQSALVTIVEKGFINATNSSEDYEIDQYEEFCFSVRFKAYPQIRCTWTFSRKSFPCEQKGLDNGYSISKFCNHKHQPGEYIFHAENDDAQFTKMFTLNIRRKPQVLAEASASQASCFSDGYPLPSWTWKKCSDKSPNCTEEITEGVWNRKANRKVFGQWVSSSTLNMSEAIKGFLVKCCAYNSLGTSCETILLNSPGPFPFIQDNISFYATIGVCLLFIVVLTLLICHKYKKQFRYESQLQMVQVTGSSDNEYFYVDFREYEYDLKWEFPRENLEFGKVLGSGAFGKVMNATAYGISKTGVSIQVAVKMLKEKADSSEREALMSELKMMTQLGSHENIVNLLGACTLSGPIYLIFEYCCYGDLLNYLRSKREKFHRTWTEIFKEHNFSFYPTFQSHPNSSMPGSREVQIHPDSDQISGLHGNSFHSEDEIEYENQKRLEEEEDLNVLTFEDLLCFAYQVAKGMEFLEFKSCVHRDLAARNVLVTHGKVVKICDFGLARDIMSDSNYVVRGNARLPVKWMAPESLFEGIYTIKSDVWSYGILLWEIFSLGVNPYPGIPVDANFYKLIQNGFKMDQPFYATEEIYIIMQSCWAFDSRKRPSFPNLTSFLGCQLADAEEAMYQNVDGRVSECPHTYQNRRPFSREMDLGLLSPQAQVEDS
Sequence of Death-associated protein kinase 1 (P53355 whole entry): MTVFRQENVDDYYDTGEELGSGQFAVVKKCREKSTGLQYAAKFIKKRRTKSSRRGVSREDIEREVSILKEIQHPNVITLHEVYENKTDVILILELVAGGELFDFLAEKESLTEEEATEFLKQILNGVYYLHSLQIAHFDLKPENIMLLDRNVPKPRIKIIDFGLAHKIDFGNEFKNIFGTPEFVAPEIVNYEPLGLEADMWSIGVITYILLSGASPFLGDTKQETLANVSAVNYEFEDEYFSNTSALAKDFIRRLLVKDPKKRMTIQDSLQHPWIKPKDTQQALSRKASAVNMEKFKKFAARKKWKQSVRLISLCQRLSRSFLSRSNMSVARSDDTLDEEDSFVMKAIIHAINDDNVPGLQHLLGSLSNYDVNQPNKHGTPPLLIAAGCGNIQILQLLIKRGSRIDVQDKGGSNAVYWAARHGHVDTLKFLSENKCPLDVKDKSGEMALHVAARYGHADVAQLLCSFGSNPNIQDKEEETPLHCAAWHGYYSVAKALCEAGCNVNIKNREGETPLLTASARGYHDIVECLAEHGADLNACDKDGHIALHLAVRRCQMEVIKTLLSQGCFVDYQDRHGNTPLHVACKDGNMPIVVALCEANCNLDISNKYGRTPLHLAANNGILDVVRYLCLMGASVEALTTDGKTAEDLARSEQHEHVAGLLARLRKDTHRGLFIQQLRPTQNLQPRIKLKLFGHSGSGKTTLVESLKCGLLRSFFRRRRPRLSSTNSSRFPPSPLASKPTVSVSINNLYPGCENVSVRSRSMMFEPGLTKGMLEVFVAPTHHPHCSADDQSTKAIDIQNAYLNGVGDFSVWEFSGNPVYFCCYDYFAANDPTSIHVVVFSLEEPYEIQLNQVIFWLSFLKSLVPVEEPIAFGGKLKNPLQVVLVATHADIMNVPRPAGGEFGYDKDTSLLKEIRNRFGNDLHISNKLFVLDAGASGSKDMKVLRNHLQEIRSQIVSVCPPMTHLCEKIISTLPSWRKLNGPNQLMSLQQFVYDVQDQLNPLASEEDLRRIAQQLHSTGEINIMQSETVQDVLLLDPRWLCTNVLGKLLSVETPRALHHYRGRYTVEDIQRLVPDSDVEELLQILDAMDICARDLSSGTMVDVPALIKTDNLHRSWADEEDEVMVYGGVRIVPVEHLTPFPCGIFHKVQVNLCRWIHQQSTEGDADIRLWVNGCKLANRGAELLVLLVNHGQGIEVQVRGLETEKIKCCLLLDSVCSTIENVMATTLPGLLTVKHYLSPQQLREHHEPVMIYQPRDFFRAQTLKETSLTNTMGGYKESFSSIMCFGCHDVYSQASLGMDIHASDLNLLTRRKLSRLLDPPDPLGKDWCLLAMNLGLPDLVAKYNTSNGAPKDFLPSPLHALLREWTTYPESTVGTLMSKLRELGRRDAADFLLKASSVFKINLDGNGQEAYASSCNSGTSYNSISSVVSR
Sequence of Proto-oncogene tyrosine-protein kinase receptor Ret (P07949 29-1114 M918T limits assumed): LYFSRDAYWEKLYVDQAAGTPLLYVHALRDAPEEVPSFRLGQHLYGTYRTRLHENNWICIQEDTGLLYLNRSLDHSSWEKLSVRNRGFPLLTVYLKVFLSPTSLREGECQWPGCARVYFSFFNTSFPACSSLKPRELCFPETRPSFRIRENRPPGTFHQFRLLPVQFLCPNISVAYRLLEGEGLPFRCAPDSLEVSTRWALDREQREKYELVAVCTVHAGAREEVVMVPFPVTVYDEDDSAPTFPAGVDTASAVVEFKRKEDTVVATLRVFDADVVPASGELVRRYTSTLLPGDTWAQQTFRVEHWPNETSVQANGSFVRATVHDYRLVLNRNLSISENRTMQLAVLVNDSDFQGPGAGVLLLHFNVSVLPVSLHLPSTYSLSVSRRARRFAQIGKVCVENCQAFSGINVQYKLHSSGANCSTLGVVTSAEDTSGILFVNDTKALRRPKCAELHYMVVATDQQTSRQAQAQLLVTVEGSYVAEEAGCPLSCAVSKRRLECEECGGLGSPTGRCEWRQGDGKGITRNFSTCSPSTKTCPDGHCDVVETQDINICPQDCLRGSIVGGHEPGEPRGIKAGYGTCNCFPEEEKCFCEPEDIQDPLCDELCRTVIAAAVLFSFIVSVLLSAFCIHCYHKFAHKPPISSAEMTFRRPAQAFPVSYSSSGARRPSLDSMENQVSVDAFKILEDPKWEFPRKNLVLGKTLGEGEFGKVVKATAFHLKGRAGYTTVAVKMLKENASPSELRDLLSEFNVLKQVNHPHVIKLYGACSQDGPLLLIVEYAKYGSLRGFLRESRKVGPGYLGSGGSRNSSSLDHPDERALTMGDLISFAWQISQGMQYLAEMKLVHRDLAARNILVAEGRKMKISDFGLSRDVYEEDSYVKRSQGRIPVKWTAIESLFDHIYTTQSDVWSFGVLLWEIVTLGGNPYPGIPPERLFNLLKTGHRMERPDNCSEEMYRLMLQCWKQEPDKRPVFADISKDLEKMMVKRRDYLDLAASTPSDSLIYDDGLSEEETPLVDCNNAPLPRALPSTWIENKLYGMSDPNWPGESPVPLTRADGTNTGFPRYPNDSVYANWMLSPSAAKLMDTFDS
Sequence of Protein-tyrosine kinase 2-beta (Q14289 whole entry): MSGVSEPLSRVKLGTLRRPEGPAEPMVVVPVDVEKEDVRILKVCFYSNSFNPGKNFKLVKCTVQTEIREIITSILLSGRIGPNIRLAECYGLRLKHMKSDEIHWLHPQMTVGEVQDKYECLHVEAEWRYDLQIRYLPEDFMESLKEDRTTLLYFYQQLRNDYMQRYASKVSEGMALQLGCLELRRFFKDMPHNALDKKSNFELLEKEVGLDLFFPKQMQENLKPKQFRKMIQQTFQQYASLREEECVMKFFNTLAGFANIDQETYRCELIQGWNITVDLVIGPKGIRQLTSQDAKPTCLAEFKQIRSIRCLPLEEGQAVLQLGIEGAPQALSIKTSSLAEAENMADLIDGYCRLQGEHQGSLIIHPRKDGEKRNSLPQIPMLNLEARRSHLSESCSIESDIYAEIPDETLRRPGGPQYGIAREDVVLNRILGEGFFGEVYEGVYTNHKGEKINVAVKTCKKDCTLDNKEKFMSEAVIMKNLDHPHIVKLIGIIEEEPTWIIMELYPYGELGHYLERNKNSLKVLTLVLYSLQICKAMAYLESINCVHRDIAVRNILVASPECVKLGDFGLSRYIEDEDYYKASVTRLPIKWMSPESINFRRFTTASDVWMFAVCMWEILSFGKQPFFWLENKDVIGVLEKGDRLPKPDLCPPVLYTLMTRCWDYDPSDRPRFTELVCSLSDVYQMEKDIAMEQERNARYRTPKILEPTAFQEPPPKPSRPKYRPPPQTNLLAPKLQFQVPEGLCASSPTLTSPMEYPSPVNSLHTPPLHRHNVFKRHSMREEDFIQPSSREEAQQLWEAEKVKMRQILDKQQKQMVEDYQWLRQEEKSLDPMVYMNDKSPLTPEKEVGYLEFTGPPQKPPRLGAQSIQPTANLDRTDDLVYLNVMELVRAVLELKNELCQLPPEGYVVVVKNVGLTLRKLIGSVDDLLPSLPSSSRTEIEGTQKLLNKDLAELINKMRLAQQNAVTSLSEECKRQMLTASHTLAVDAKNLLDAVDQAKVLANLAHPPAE

What is called Kd is the free concentration of one partner at which half of the binding sites on the other are occupied at equilibrium, for simple one-to-one binding. Low readings indicate a tighter complex, high ones a looser complex. `COCC(=O)NC/C=C/c1ccc2ncnc(Nc3ccc(Oc4ccc(C)nc4)c(C)c3)c2c1` [CP-724714]: the Kd in assay [1], in assay [2], in assay [3], in assay [4], in assay [5] and in assay [6] was above 10 µM throughout. The dissociation constant (Kd) in assay [7] and in assay [8] was above 10 µM each time.
For the compound `Nc1nc(Nc2ccc(S(N)(=O)=O)cc2)nn1C(=O)c1c(F)cccc1F` [JNJ-7706621], the equilibrium dissociation constant (Kd) in assay [1], in assay [3], in assay [4], in assay [5] and in assay [7] was above 10 µM each time.
For the compound `CCOc1cc2ncc(C#N)c(Nc3ccc(F)c(Cl)c3)c2cc1NC(=O)/C=C/CN(C)C` [PELITINIB], the Kd in assay [1] was above 10 µM; in assay [2], above 10 µM; in assay [3], above 10 µM; in assay [4] it was above 10 µM; in assay [5], 5.5 µM; in assay [6] it was above 10 µM. The dissociation constant Kd in assay [7] and in assay [8] was above 10 µM each time.
With `Oc1ccc(-c2nc(-c3ccncc3)c(-c3ccc(F)cc3)[nH]2)cc1` [SB-202190], the dissociation constant Kd in assay [1], in assay [2], in assay [3], in assay [4], in assay [5] and in assay [6] was above 10 µM in each case. In addition, the Kd in assay [7] and in assay [8] was above 10 µM each time.
With `NC(=O)c1ccc(-c2nc(-c3ccc4c(c3)OCO4)c(-c3ccccn3)[nH]2)cc1` [SB-431542], the Kd in assay [1], in assay [2], in assay [3], in assay [4], in assay [5] and in assay [7] was above 10 µM throughout. The compound further yielded a dissociation constant Kd in assay [8] above 10 µM.
